Results taken from article PMC7407834, “Development of an LDL Receptor-Targeted Peptide Susceptible to Facilitate the Brain Access of Diagnostic or Therapeutic Agents” (Biology, 2020).

Experiments:
[1] = test system: 1321N1 cells; experiment: Colocalization of LRPep2 with caveolae and lysosomes, 1321N1; format: cell-based
Procedure: (§1) Cells were first incubated with LRPep2-rho, as described above (cf. 2.4. Evaluation of the endocytosis potential of peptides LRPep1 and LRPep2), before being permeabilized with methanol. Then, cells were blocked with PBS supplemented with 5% NGS and 0.3% Triton X-100. Caveolae and lysosomes were detected using anti-caveolin 1 and anti-LAMP1 (Lysosomal-Associated Membrane Protein 1) antibodies, respectively, made in rabbit (both from Santa Cruz, Heidelberg, Germany) and incubated overnight at 4 µg/mL in PBS. Finally, cells were incubated for 1 h with an anti-rabbit IgG made in goat coupled to fluorescein (Vector Labconsult) at 20 µg/mL in phosphate buffer pH 7.8 supplemented with 0.5% BSA. Cells were mounted with Vectashield mounting medium with DAPI.

[2] = test system: N18(H) cells; experiment: Colocalization of LRPep2 with caveolae and lysosomes, N18(H); format: cell-based; details: differentiated N18(H) cells
Procedure: Experiments on N18(H) cells were performed after differentiation. Cells were immobilized on the appropriate support, and the differentiation was induced the second day, using medium containing 0.2% FBS for 48 h.
as §1

[3] = test system: HepaRG cells; experiment: Colocalization of LRPep2 with caveolae and lysosomes, HepaRG; format: cell-based; details: p < 0.001
Procedure: as §1

[4] = test system: HUVEC, HepaRG, ACBRI376 and 1321N1 cells; experiment: Endocytosis of rhodamine-coupled peptides, fluorescence microscopy (RRFL); format: cell-based, human; details: all studied cell models, p < 0.001 in HepaRG, p < 0.05 in HUVEC
Procedure: Cells were seeded onto coverslips coated with collagen (0.2 mg/mL, Sigma-Aldrich, Overijse, Belgium) at a density of 8 × 10^5 cells/well and grown for 3 days.
Cells were incubated for 2 h at 37 °C in the dark with LRPep1-rho or LRPep2-rho (peptides coupled to rhodamine, 200 µM in culture medium for HepaRG and HUVEC, 25 µM for ACBRI376 and 1321N1); the negative control was incubated with culture medium. The use of the rhodamine as a fluorescent probe was based on our previous experience with labeled peptides. Cells were rinsed two times with PBS (per liter: 8 g NaCl, 0.2 g KCl, 2.31 g Na2HPO4 × 12 H2O, 0.2 g KH2PO4, pH 7.4). […]
Fluorescence was observed using a Leica DM2000 microscope equipped with a light source EL 6000 and a DFC 425C camera (Leica Microsystems, Groot Bijgaarden, Belgium).
Figure 4 Endocytosis of the peptides LRPep1-rho and LRPep2-rho (stained in red) in (A) HUVEC and HepaRG cells and (B) ACBRI376 and 1321N1 cells. […] (C–F) The endocytosis of peptides, as well as the expression of LDLR, was semi-quantitatively evaluated by the measurement of fluorescent labeling using the ImageJ software and was normalized to the number of cells and to the background, giving the relative ratio of fluorescent labeling (RRFL); *: p < 0.05, **: p < 0.001. […]

[5] = test system: ACBRI376 cells; experiment: Colocalization of LRPep2 with caveolae and lysosomes, ACBRI376; format: cell-based, human
Procedure: as §1

## HPWCCGLRLDLR [LRPep2]
[1]
  Endocytosis pathway: both pathways
[2]
  Endocytosis pathway: both pathways
[3]
  Endocytosis pathway: significant increase of fluorescence was observed for lysosomes
[4]
  Endocytosis of the peptide compared with the other peptide: more effective than that of peptide LRPep1
[5]; ACBRI376, caveolin-1 fluorescence increased (p < 0.05), LAMP1 decreased (p < 0.05)
  Endocytosis pathway: endocytosed by the non-degradation pathway involving caveolae
[5]; ACBRI376 cells, LRPep2-rho 25 µM, 2 h 37 °C, Figure S4
  Mander's coefficient (M), colocalization of rhodamine with caveolin-1: 82.7%
